The values below come from ChEMBL document CHEMBL4814009, “A new anti-austerity agent, 4'-O-methylgrynullarin from Derris scandens induces PANC-1 human pancreatic cancer cell death under nutrition starvation via inhibition of Akt/mTOR pathway” (2021).

Structures are written as SMILES.

Test [1] concerns PANC-1. Briefly: Anti-austerity activity against human PANC-1 cells assessed as cell killing in nutrient deprived medium. Type of test: functional.
Another test concerns MIA PaCa-2. The test is described as follows: Anti-austerity activity against human MIA PaCa-2 cells assessed as cell killing in nutrient deprived medium. Type of test: functional.
Another test deals with PSN1. The test is described as follows: Anti-austerity activity against human PSN1 cells assessed as cell killing in nutrient deprived medium. The format is functional.
Test [2] is described as follows: Anti-austerity activity against human KLM-1 cells assessed as cell killing in nutrient deprived medium. Type of test: functional.
For test [3], the system named is PANC-1. Briefly: Induction of apoptosis in human PANC-1 cells assessed as cell morphology by measuring red fluorescence incubated for 24 hrs in nutrient deprived medium by acridine orange and ethidium bromide dye based fluorescence microscopy analysis. Type of test: functional. The note with it: dose 1-5 µM.
Test [4] has as its system PANC-1. The test is described as follows: Antimigratory activity against human PANC1 cells assessed as wound area at 25 uM cultured in nutrient rich DMEM medium imaged every 10 mins for 24 hrs by quantitative real-time imaging based wound healing assay (reference value: 35%). Type of test: functional.
Test [5] deals with RAC-alpha serine/threonine-protein kinase (Homo sapiens) (UniProt P31749). The test is described as follows: Inhibition of Akt in human PANC-1 cells assessed as reduction in phosphorylation at Ser473 incubated for 6 hrs by Western blot analysis. The format is cell-based. The note with it: dose 1-10 µM. On the technique in general: In western blotting, separated proteins are transferred to a membrane and probed.

Test [6] has as its system PANC-1. The test is described as follows: Inhibition of colony formation in human PANC-1 cells in nutrient rich DMEM medium measured treated for 24 hrs followed by replaced with fresh medium measured after 10 days by crystal violet staining based assay. Type of test: functional, cell-based. Conditions: dose 6.25-25 µM.
The target in test [7] is Serine/threonine-protein kinase mTOR (Homo sapiens) (UniProt P42345). Briefly: Inhibition of mTOR in human PANC-1 cells assessed as reduction in phosphorylation at S2448 incubated for 6 hrs by Western blot analysis. The note with it: dose 1-10 µM. Type of test: cell-based.

RAC-alpha serine/threonine-protein kinase (Homo sapiens), sequence (P31749 whole entry): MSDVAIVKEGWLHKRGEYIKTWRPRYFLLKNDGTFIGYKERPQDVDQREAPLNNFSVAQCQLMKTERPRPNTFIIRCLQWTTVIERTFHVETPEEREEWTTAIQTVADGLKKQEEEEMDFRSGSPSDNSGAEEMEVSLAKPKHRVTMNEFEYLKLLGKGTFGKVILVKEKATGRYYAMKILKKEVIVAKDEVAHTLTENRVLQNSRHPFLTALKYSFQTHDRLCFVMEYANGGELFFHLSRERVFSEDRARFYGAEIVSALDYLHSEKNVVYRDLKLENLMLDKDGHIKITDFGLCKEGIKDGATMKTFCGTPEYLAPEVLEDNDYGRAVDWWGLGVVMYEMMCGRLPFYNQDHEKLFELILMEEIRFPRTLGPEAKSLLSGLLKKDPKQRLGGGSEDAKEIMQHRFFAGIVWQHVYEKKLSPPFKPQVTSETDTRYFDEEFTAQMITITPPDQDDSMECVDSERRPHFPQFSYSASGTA

On to `CC(C)=CCc1cc(-c2coc3cc(O)c(CC=C(C)C)c(O)c3c2=O)ccc1O` [LUPALBIGENIN], for which the PC50 with PANC-1 [1] worked out at 1 µM; in the test on MIA PaCa-2, 1.3 µM; with PSN1 it was 1.5 µM; in test [2] it was 1 µM.

With `COc1c(O)cc(-c2coc3c(CC=C(C)C)c(O)cc(O)c3c2=O)cc1CC=C(C)C`, the PC50 in the test on PANC-1 [1] was 1 µM; in the test on MIA PaCa-2, 1.2 µM; in the test with PSN1 it was 1.8 µM; in [2] it was 1.6 µM. Further, the Activity entry in the test with PANC-1 [3] is “Dose-Dependent Effect”; with PANC-1 [4], 74%. The inhibition entry (in test [5]; with PANC-1 [6]; in test [7]) was “Dose-Dependent Effect” in each case.

Regarding `COc1cc(C[C@H]2C(=O)OC[C@@H]2Cc2ccc(OC)c(OC)c2)ccc1O` [ARCTIGENIN], the PC50 turned out to be 0.7 µM in the test on PANC-1 [1], 1.9 µM in the test on MIA PaCa-2, 0.7 µM with PSN1 and 0.8 µM in [2].

Take `CC(C)=CCc1cc(-c2coc3c(CC=C(C)C)c(O)cc(O)c3c2=O)cc(O)c1O`: the PC50 in the test with PANC-1 [1] was 10 µM; with MIA PaCa-2, 10.9 µM; with PSN1, 10.2 µM; in [2], 10.1 µM.

With `CC(C)=CCc1cc(-c2coc3cc(O)c(CC=C(C)C)c(O)c3c2=O)cc(O)c1O`, the PC50 was 0.7 µM in the test on PANC-1 [1], 0.8 µM with MIA PaCa-2, 0.7 µM in the test on PSN1 and 0.9 µM in test [2].
